Experiments:
[1] = biological target: T1, Human β2 adrenoceptor (Homo sapiens, UniProt P07550); assay: β2 adrenoceptor radioligand binding assay; settings: human β2 adrenoceptor membranes, 125-I cyanopindolol; Ki from IC50 by Cheng and Prusoff; read-out: B2 binding affinity (Ki class)
T1 construct: purchased Perkin Elmer
Method: Example. β2 Adrenoceptor Radioligand Binding Assay
Human β2 adrenoceptor membranes (7.5 ug/well) from Perkin Elmer were incubated with 0.3 nM 125-I Cyanopindolol with or without test compounds, or a saturating concentration of s-propranolol (2 μM) for the determination of non-specific binding. The assay was carried out in 96-well polypropylene plates in a volume of 200 ul. The assay buffer used was 25 mM HEPES, 0.5% BSA (w/v), 1 mM EDTA, 0.02% ascorbic acid (v/v), (pH 7.4). The final assay concentration of DMSO was 0.5% (v/v). The plates were sealed and incubated for 1 hour at room temperature on an orbital shaker (slow speed). Membranes were harvested onto 96-well unifilter GF/C filter plates pre-treated with 0.5% polyethyleneimine (v/v), using a filter manifold, washed six times with 200 μl of wash buffer containing 10 mM HEPES and 500 mM NaCl. The plates were dried before addition of 50 μl of microscint-0, sealed then read in a Trilux Microbeta scintillation counter. IC50 values are determined from competition curves using a non-linear curve fitting program. Ki values were calculated from IC50 values by the Cheng and Prusoff equation.

[2] = biological target: T2, Human M3 receptor (Homo sapiens, UniProt P20309); assay: M3 receptor radioligand binding assay; settings: human M3 receptor membranes, [N-methyl-3H] scopolamine methyl chloride; Ki from IC50 by Cheng and Prusoff; read-out: M3 binding affinity (Ki class)
T2 construct: purchased Perkin Elmer
Method: Example. M3 Receptor Radioligand Binding Assay
The assay was carried out in 96-well polypropylene plates in a volume of 250 ul. […] The final assay concentration of DMSO was 0.5% (v/v). The plates were sealed and incubated for 2 hours at room temperature on an orbital shaker (slow speed). Membranes were harvested onto 96-well unifilter GF/C filter plates pre-treated with 0.5% polyethyleneimine (v/v), using a filter manifold, washed four times with 200 μl of assay buffer. The plates were dried before addition of 50 μl of microscint-0, sealed then read in a Trilux Microbeta scintillation counter. IC50 values are determined from competition curves using a non-linear curve fitting program. Ki values were calculated from IC50 values by the Cheng and Prusoff equation.

T2 sequence (P20309 whole entry): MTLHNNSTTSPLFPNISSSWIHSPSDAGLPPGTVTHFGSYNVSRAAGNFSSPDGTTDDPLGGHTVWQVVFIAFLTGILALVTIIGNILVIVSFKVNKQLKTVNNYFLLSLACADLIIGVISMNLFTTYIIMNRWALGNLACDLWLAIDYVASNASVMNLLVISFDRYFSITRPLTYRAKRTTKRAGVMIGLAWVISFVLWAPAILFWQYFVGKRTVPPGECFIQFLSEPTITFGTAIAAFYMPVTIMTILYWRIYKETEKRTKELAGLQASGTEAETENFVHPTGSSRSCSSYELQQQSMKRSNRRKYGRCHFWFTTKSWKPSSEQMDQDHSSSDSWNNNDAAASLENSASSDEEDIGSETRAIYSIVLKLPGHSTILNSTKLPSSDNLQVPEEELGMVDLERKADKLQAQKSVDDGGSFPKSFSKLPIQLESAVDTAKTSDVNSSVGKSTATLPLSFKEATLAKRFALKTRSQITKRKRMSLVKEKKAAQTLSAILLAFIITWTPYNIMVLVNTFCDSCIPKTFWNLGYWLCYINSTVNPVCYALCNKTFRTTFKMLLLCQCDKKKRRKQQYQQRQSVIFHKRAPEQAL
T1 sequence (P07550 whole entry): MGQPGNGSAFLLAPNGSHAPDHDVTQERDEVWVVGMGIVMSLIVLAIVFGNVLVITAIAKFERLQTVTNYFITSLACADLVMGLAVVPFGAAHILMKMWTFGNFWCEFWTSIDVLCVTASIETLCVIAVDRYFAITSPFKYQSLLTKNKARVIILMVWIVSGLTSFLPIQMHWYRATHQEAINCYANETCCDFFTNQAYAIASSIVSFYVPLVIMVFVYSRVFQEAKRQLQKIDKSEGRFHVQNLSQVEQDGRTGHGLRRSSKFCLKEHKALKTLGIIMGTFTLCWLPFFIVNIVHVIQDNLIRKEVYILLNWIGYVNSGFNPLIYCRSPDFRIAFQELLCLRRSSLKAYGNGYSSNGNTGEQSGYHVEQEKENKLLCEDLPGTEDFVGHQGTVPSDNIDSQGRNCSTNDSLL

Ki [1] | Ki [2] | Compound
> 10 nM | < 1 nM | O=C(NCCCCNC[C@H](O)c1ccc(O)c2[nH]c(=O)ccc12)c1ccc(CNC2(C(=O)OC3CCN(Cc4ccccc4)CC3)CCc3ccccc32)s1 (single isomer, unassigned; stereoisomer 2) [Compound 27]
> 10 nM | 1 to 10 nM | O=C(NC1(C(=O)OCC2CCN(Cc3cccc(O)c3)CC2)CCc2ccccc21)c1cccc(OCCCCCCNC[C@H](O)c2ccc(O)c3[nH]c(=O)ccc23)c1 (stereo partly drawn) [Compound 11, (1-(3-hydroxybenzyl)piperidin-4-yl)methyl 1-(3-((6-(((R)-2-hydroxy-2-(8-hydroxy-2-oxo-1,2-dihydroquinolin-5-yl)ethyl)amino)hexyl)oxy)benzamido)-2,3-dihydro-1H-indene-1-carboxylate]
> 10 nM | < 1 nM | O=C(NCCCCNC[C@H](O)c1ccc(O)c2[nH]c(=O)ccc12)c1ccc(CNC2(C(=O)OC3CCN(Cc4ccccc4)CC3)CCc3ccccc32)s1 (single isomer, unassigned; stereoisomer 1) [Compound 24]
1 to 10 nM | < 1 nM | O=C(NCCCCNC[C@H](O)c1ccc(O)c2[nH]c(=O)ccc12)c1ccc(CNC2(C(=O)OCC3CCN(Cc4ccccc4)CC3)CCc3ccccc32)s1 (single isomer, unassigned; stereoisomer 1) [Compound 22]
> 10 nM | < 1 nM | O=C(NCCCCNC[C@H](O)c1ccc(O)c2[nH]c(=O)ccc12)c1ccc(CNC2(C(=O)OCC3CCN(Cc4cccs4)CC3)CCc3ccccc32)s1 (stereo partly drawn) [Compound 17, (1-(thiophen-2-ylmethyl)piperidin-4-yl)methyl 1-(((5-((4-(((R)-2-hydroxy-2-(8-hydroxy-2-oxo-1,2-dihydroquinolin-5-yl)ethyl)amino)butyl)carbamoyl)thiophen-2-yl)methyl)amino)-2,3-dihydro-1H-indene-1-carboxylate]
1 to 10 nM | < 1 nM | O=C(NCCCCNC[C@H](O)c1ccc(O)c2[nH]c(=O)ccc12)c1ccc(CNC2(C(=O)O[C@@H]3CCN(Cc4ccccc4)C3)CCc3ccccc32)s1 (single isomer, unassigned; stereoisomer 2) [Compound 28]

Compound | Ki [1] | Ki [2]
O=C(NCCCCNC[C@H](O)c1ccc(O)c2[nH]c(=O)ccc12)c1ccc(CNC2(C(=O)O[C@H]3CN4CCC3CC4)CCc3ccccc32)s1 (stereo partly drawn) [Compound 4, (R)-quinuclidin-3-yl 1-(((5-((4-(((R)-2-hydroxy-2-(8-hydroxy-2-oxo-1,2-dihydroquinolin-5-yl)ethyl)amino)butyl)carbamoyl)thiophen-2-yl)methyl)amino)-2,3-dihydro-1H-indene-1-carboxylate] | < 1 nM | < 1 nM
O=C(O[C@H]1CN2CCC1CC2)C1(NCc2cccc(OCCCCCNC[C@H](O)c3ccc(O)c4[nH]c(=O)ccc34)c2)CCc2ccccc21 (stereo partly drawn) [Compound 3, (R)-quinuclidin-3-yl 1-((3-((5-(((R)-2-hydroxy-2-(8-hydroxy-2-oxo-1,2-dihydroquinolin-5-yl)ethyl)amino)pentyl)oxy)benzyl)amino)-2,3-dihydro-1H-indene-1-carboxylate] | < 1 nM | < 1 nM
O=C(NC1(C(=O)O[C@H]2CN3CCC2CC3)CCc2ccccc21)c1cccc(OCCCCNC[C@H](O)c2ccc(O)c3[nH]c(=O)ccc23)c1 (stereo partly drawn) [Compound 6, (R)-quinuclidin-3-yl 1-(3-(4-(((R)-2-hydroxy-2-(8-hydroxy-2-oxo-1,2-dihydroquinolin-5-yl)ethyl)amino)butoxy)benzamido)-2,3-dihydro-1H-indene-1-carboxylate] | 1 to 10 nM | < 1 nM
O=C(NCCCCNC[C@H](O)c1ccc(O)c2[nH]c(=O)ccc12)c1ccc(CNC2(C(=O)O[C@H]3CN4CCC3CC4)Cc3ccccc3C2)s1 [Compound 14, (R)-quinuclidin-3-yl 2-(((5-((4-(((R)-2-hydroxy-2-(8-hydroxy-2-oxo-1,2-dihydroquinolin-5-yl)ethyl)amino)butyl)carbamoyl)thiophen-2-yl)methyl)amino)-2,3-dihydro-1H-indene-2-carboxylate] | 1 to 10 nM | < 1 nM
Cc1cccc2c1CCC2(NC(=O)c1cccc(OCCCCCNC[C@H](O)c2ccc(O)c3[nH]c(=O)ccc23)c1)C(=O)O[C@H]1CN2CCC1CC2 (single isomer, unassigned; diastereoisomer 1) [Compound 5A] | 1 to 10 nM | 1 to 10 nM
